Holding throughout (experiment): NCI tumour cell line growth inhibition, 48 h
Experiment [1] deals with SK-MEL-2 melanoma.
For experiment [2], the system named is UO-31 renal.
Experiment [3] relates to KM12 colon.
In experiment [4] the test system is M14 melanoma.
The subject of experiment [5] is IGROV1 ovarian.
Experiment [6] deals with SF-268 CNS.
For experiment [7], the system named is UACC-62 melanoma.
For experiment [8], the system named is HCT-116 colon.
The test system of experiment [9] is SK-MEL-5 melanoma.
Experiment [10] has as its system OVCAR-4 ovarian.

The structures appear in SMILES notation.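 Cells were grown in 96-well plates and exposed to each compound for 48 hours at five concentrations; endpoints were interpolated linearly between bracketing concentrations, or set to the highest concentration if not reached. GI50 marks 50% less growth. TGI: concentration producing complete growth inhibition.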

In the case of `OC12CC/C(=N/OCc3ccccc3)CC1c1ccccc12` (stereo not given), the TGI in experiment [1], in experiment [2], in [3], in experiment [4], in [5] and in experiment [6] was above 100 µM each time. Also, the TGI in [7], in experiment [8], in experiment [9] and in experiment [10] was above 100 µM each time.
For `O=Cc1ccc(-c2cccs2)s1`, the TGI in [1] was above 100 µM; in experiment [2], above 100 µM; in [3], above 100 µM; in experiment [4], above 100 µM; in experiment [5], 47.4 µM; in experiment [6], above 100 µM. For the same compound, the TGI was 4.42 µM in [7], above 100 µM in experiment [8], above 88.9 µM in experiment [9] and above 77 µM in experiment [10].
With `CCN(CC)CCCC(C)Nc1c2ccc(C)cc2nc2ccc(OC)cc12` (stereo not given), the GI50 was 1.89 µM in experiment [1]; 1.05 µM in experiment [2]; 1.39 µM in experiment [3]; 1.58 µM in [4]; 0.514 µM in experiment [5]; 2.53 µM in [6]. For the same compound, the GI50 in [7] is 10.5 µM; in experiment [8], 0.585 µM; in experiment [9], 1.65 µM; in [10], 1.13 µM. The TGI in experiment [1] stood at 8.75 µM; in [2] it was 2.36 µM; in experiment [3], 9.19 µM; in experiment [4] it was 3.18 µM; in experiment [5], 3.12 µM; in experiment [6], 13.5 µM. Further, the TGI is 27.9 µM in experiment [7], 6.46 µM in [8], 3.03 µM in experiment [9] and 3.02 µM in [10].
Consider `Cc1cc(N/N=C/c2nc(-c3ccc(Cl)cc3)oc2C)c2cc(Cl)ccc2n1`, for which the GI50 is 16.4 µM in experiment [1]; 12.6 µM in [2]; 1.97 µM in experiment [3]; 1.96 µM in experiment [4]; 3.38 µM in experiment [5]; 3.15 µM in experiment [6]. Also, the GI50 was 1.8 µM in experiment [7], 2.14 µM in experiment [8], 8.64 µM in experiment [9] and 1.68 µM in experiment [10]. Besides, the TGI is 31.8 µM in experiment [1]; 25.2 µM in [2]; 4.6 µM in experiment [3]; 4.13 µM in experiment [4]; 12.6 µM in experiment [5]; 11.2 µM in experiment [6]. Besides, the TGI in [7] was found to be 3.54 µM; in experiment [8], 4.59 µM; in [9], 20.8 µM; in [10], 3.33 µM.
For the compound `COC(=O)c1nc(N)[nH]c(=O)c1CCCCCc1c(C(=O)OC)nc(N)[nH]c1=O`, the TGI in experiment [1], in experiment [2], in [3], in experiment [4], in [5] and in experiment [6] was above 50 µM in each case. The TGI in experiment [7], in experiment [8], in [9] and in experiment [10] was above 50 µM each time.
With `COc1ccc(C2CC(n3nnnc3-c3ccccc3)=NN2)cc1` (stereo not given), the GI50 is 11.6 µM in experiment [1]; 1.39 µM in [2]; 0.617 µM in experiment [3]; 0.6 µM in [4]; 2.44 µM in [5]; 6.38 µM in experiment [6]. For the same compound, the GI50 was 0.465 µM in [7], 4.87 µM in [8], 2.12 µM in [9] and 1.11 µM in [10]. Besides, the TGI in experiment [1] is 32.7 µM; in experiment [2], 11.7 µM; in [3], 13.6 µM; in experiment [4], 14.6 µM; in experiment [5], above 100 µM; in experiment [6], 54.5 µM. Further, the TGI was determined as 12.5 µM in [7], 22.3 µM in [8], 7.81 µM in [9] and 94.8 µM in experiment [10].
As to `Nc1nc(CCC(=O)Nc2cccc(C(F)(F)F)c2)cc(-c2ccc3ccccc3c2)n1`, the TGI in experiment [1], in experiment [2], in [3], in experiment [4], in experiment [5] and in [6] was above 100 µM each time. The TGI in experiment [7], in experiment [8], in experiment [9] and in experiment [10] was above 100 µM throughout.
Regarding `CC1CCN(CC(=O)N2c3ccccc3Sc3cc4ccccc4cc32)CC1`, the TGI in [1], in experiment [2], in [3], in experiment [4], in experiment [5] and in experiment [6] was above 100 µM each time. For the same compound, the TGI in [7], in experiment [8], in experiment [9] and in [10] was above 100 µM in each case.
On to `FCc1ncc(-c2ccc(C(F)(F)F)cc2)c(NC2CCCCCC2)n1`, for which the GI50 in experiment [1], in experiment [2], in [3], in [4], in experiment [5] and in experiment [6] was above 10 µM in each case. Also, the GI50 in experiment [7], in [8], in [9] and in experiment [10] was above 10 µM in each case. In addition, the TGI in experiment [1], in experiment [2], in [3], in [4], in [5] and in [6] was above 10 µM in each case. Besides, the TGI in [7], in [8], in [9] and in [10] was above 10 µM each time.
Regarding `O=[N+]([O-])c1ccc2c(c1)[O][Sn][O]2`, the GI50 in experiment [1] is above 150 mg/L; in experiment [2], 125 mg/L; in [3], 37.6 mg/L; in experiment [4], 23.8 mg/L; in [5], 115 mg/L; in experiment [6], 47.6 mg/L. The GI50 in [7] was 8.32 mg/L; in experiment [8], 45.3 mg/L; in experiment [9], 75.8 mg/L; in experiment [10], above 150 mg/L. Besides, the TGI was above 150 mg/L in experiment [1]; above 150 mg/L in experiment [2]; above 150 mg/L in [3]; 78.2 mg/L in [4]; above 150 mg/L in [5]; above 150 mg/L in [6]. Moreover, the TGI in experiment [7], in experiment [8], in experiment [9] and in experiment [10] was above 150 mg/L each time.

Values taken from PubChem BioAssay (NCI).
